For the experiment, the target named is T1, human kinase Mps-1 (Homo sapiens, UniProt P33981).
T1 construct: N-terminally GST-tagged human full length recombinant Mps-1 kinase; GST (N); purchased Invitrogen, Karslruhe, Germany PV4071
T1 sequence (P33981 1-857): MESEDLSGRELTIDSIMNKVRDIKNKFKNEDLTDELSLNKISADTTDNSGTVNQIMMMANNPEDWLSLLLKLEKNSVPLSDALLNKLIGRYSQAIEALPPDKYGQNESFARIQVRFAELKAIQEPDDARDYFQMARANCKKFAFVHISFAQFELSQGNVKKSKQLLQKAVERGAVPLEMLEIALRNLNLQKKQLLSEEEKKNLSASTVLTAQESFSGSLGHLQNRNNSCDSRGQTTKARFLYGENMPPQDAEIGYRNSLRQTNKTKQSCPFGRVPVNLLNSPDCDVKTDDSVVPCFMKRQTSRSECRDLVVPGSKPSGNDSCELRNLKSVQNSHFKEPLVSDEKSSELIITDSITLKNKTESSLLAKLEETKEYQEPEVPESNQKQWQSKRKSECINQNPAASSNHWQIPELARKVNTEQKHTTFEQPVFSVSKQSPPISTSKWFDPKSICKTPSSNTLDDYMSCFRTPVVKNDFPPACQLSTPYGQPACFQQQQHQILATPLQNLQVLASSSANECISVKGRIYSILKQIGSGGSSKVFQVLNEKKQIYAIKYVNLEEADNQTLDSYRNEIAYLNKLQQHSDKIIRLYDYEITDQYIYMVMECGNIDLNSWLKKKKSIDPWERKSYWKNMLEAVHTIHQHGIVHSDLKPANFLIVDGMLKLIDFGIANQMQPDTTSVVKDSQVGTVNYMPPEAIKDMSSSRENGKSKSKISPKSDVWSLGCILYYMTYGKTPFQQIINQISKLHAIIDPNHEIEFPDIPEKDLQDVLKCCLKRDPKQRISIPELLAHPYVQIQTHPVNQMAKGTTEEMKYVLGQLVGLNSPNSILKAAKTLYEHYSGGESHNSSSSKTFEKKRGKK
Put plainly: Mps-1 kinase assay (TR-FRET). Type of experiment: biochemical. The settings on record: GST-tagged human full length recombinant Mps-1; 10 μM ATP; 1 μM peptide substrate; 60 min at 22° C. The method, then: The human kinase Mps-1 phosphorylates a biotinylated substrate peptide. Detection of the phosphorylated product is achieved by time-resolved fluorescence resonance energy transfer (TR-FRET) from Europium-labelled anti-phospho-Serine/Threonine antibody as donor to streptavidin labelled with cross-linked allophycocyanin (SA-XLent) as acceptor. Compounds are tested for their inhibition of the kinase activity.
N-terminally GST-tagged human full length recombinant Mps-1 kinase (purchased from Invitrogen, Karslruhe, Germany, cat. no PV4071) was used. As substrate for the kinase reaction a biotinylated peptide of the amino-acid sequence […] (C-terminus in amide form, purchased from Biosynthan GmbH, Berlin) was used.
The concentration of Mps-1 in the assay was adjusted to the activity of the enzyme lot and was chosen appropriate to have the assay in the linear range, typical enzyme concentrations were in the range of about 1 nM (final conc. in the 5 μl assay volume).
The resulting mixture was incubated 1 h at 22° C. to allow the binding of the phosphorylated peptide to the anti-phospho(Ser/Thr)-Europium-antibody. Subsequently the amount of phosphorylated substrate was evaluated by measurement of the resonance energy transfer from the Europium-labelled anti-phospho(Ser/Thr) antibody to the Streptavidin-XLent. Therefore, the fluorescence emissions at 620 nm and 665 nm after excitation at 350 nm was measured in a Viewlux TR-FRET reader (PerkinElmer LAS, Rodgau-Jügesheim, Germany). The “blank-corrected normalized ratio” (a Viewlux specific readout, similar to the traditional ratio of the emissions at 665 nm and at 622 nm, in which blank and Eu-donor crosstalk are subtracted from the 665 nm signal before the ratio is calculated) was taken as the measure for the amount of phosphorylated substrate.
On the technique in general: In TR-FRET formats the signal depends on donor and acceptor labels being close together.
Usually IC50 stands for the concentration that gives 50% inhibition. Take `Cn1nccc1CNc1nc(-c2ccoc2)cn2c(-c3ccc(C(=O)NC4CC4)c(Cl)c3)cnc12` [Example 1-47, 2-chloro-N-cyclopropyl-4-[6-(furan-3-yl)-8-{[(1-methyl-1H-pyrazol-5-yl)methyl]amino}imidazo [1,2-a]pyrazin-3-yl] benzamide]: the IC50 worked out at 25.5 nM.

For the molecule `Cn1nccc1CNc1nc(-c2ccn[nH]2)cn2c(-c3ccc(C(=O)NC4CC4)c(Cl)c3)cnc12` [Example 1-48, 2-chloro-N-cyclopropyl-4-[8-{[(1-methyl-1H-pyrazol-5-yl)methyl]amino}-6-(1H-pyrazol-5-yl)imidazo[1,2-a]pyrazin-3-yl]benzamide], the IC50 came to 42.3 nM.

On to `CC(C)CNc1nc(-c2ccncc2)cn2c(-c3ccc(C(=O)NC4CC4)c(F)c3)cnc12` [Example 1-49, N-cyclopropyl-2-fluoro-4-{8-[(2-methylpropyl)amino]-6-(pyridin-4-yl)imidazo[1,2-a]pyrazin-3-yl}benzamide], for which the IC50 was 3.7 nM.

As to `CC(C)CNc1nc(-c2ccoc2)cn2c(-c3ccc(C(=O)NC4CC4)c(F)c3)cnc12` [Example 1-50, N-cyclopropyl-2-fluoro-4-{6-(furan-3-yl)-8-[(2-methylpropyl)amino]imidazo[1,2-a]pyrazin-3-yl}benzamide], the IC50 amounted to 9.2 nM.

With `CC(C)CNc1nc(-c2ccn[nH]2)cn2c(-c3ccc(C(=O)NC4CC4)c(F)c3)cnc12` [Example 1-51, N-cyclopropyl-2-fluoro-4-{8-[(2-methylpropyl)amino]-6-(1H-pyrazol-5-yl)imidazo[1,2-a]pyrazin-3-yl}benzamide], the IC50 was found to be 8.3 nM.

As to `CC(C)CNc1nc(C2=CCOCC2)cn2c(-c3ccc(C(=O)NC4CC4)c(F)c3)cnc12` [Example 1-52, N-cyclopropyl-4-{6-(3,6-dihydro-2H-pyran-4-yl)-8-[(2-methylpropyl)amino]imidazo[1,2-a]pyrazin-3-yl}-2-fluoro-benzamide], the IC50 was determined as 8.2 nM.

On to `O=C(NC1CC1)c1ccc(-c2cnc3c(NCCC(F)(F)F)nc(-c4ccncc4)cn23)cc1F` [Example 1-53, N-cyclopropyl-2-fluoro-4-{6-(pyridin-4-yl)-8-[(3,3,3-trifluoropropyl)amino]imidazo[1,2-a]pyrazin-3-yl}benzamide], for which the IC50 came out at 3.8 nM.

Take `O=C(NC1CC1)c1ccc(-c2cnc3c(NCCC(F)(F)F)nc(-c4ccoc4)cn23)cc1F` [Example 1-54, N-cyclopropyl-2-fluoro-4-{6-(furan-3-yl)-8-[(3,3,3-trifluoropropyl)amino]imidazo[1,2-a]pyrazin-3-yl}benzamide]: the IC50 was 6.6 nM.

As to `O=C(NC1CC1)c1ccc(-c2cnc3c(NCCC(F)(F)F)nc(-c4ccn[nH]4)cn23)cc1F` [Example 1-55, N-cyclopropyl-2-fluoro-4-{6-(1H-pyrazol-5-yl)-8-[(3,3,3-trifluoropropyl)amino]imidazo[1,2-a]pyrazin-3-yl}benzamide], the IC50 worked out at 9.6 nM.

In the case of `O=C(NC1CC1)c1ccc(-c2cnc3c(NCCC(F)(F)F)nc(C4=CCOCC4)cn23)cc1F` [Example 1-56, N-cyclopropyl-4-{6-(3,6-dihydro-2H-pyran-4-yl)-8-[(3,3,3-trifluoro-propyl)amino]imidazo [1,2-a]pyrazin-3-yl}-2-fluorobenzamide], the IC50 stood at 8.7 nM.

`CC(C)(O)CNc1nc(-c2ccncc2)cn2c(-c3ccc(C(=O)NC4CC4)c(F)c3)cnc12` [Example 1-57, N-cyclopropyl-2-fluoro-4-{8-[(2-hydroxy-2-methylpropyl)amino]-6-(pyridin-4-yl)imidazo [1,2-a]pyrazin-3-yl} benzamide]: the IC50 amounted to 24.1 nM.

On to `CC(C)(O)CNc1nc(-c2ccoc2)cn2c(-c3ccc(C(=O)NC4CC4)c(F)c3)cnc12` [Example 1-58, N-cyclopropyl-2-fluoro-4-{6-(furan-3-yl)-8-[(2-hydroxy-2-methyl-propyl)amino]imidazo [1,2-a]pyrazin-3-yl} benzamide], for which the half-inhibitory concentration (IC50) was determined as 23.1 nM.

On to `CC(C)(O)CNc1nc(-c2ccn[nH]2)cn2c(-c3ccc(C(=O)NC4CC4)c(F)c3)cnc12` [Example 1-59, N-cyclopropyl-2-fluoro-4-{8-[(2-hydroxy-2-methylpropyl)amino]-6-(1H-pyrazol-5-yl)imidazo [1,2-a]pyrazin-3-yl} benzamide], for which the IC50 was determined as 101 nM.

As for `CC(C)(O)CNc1nc(C2=CCOCC2)cn2c(-c3ccc(C(=O)NC4CC4)c(F)c3)cnc12` [Example 1-60, N-cyclopropyl-4-{6-(3,6-dihydro-2H-pyran-4-yl)-8-[(2-hydroxy-2-methylpropyl)amino]imidazo[1,2-a]pyrazin-3-yl}-2-fluorobenzamide], the IC50 amounted to 30.4 nM.

Consider `O=C(NC1CC1)c1ccc(-c2cnc3c(NCC4CCCO4)nc(-c4ccncc4)cn23)cc1F` (centres unmarked) [Example 1-61, N-cyclopropyl-2-fluoro-4-{6-(pyridin-4-yl)-8-[(tetrahydrofuran-2-ylmethyl)amino]imidazo [1,2-a]pyrazin-3-yl} benzamide], for which the half-inhibitory concentration (IC50) stood at 13.1 nM.

As for `O=C(NC1CC1)c1ccc(-c2cnc3c(NCC4CCCO4)nc(-c4ccoc4)cn23)cc1F` (centres unmarked) [Example 1-62, N-cyclopropyl-2-fluoro-4-{6-(furan-3-yl)-8-[(tetrahydrofuran-2-ylmethyl)amino]imidazo [1,2-a]pyrazin-3-yl} benzamide], the IC50 came out at 18.3 nM.

Turning to `O=C(NC1CC1)c1ccc(-c2cnc3c(NCC4CCCO4)nc(-c4ccn[nH]4)cn23)cc1F` (centres unmarked) [Example 1-63, N-cyclopropyl-2-fluoro-4-{6-(1H-pyrazol-5-yl)-8-[(tetrahydrofuran-2-ylmethyl)amino]imidazo [1,2-a]pyrazin-3-yl} benzamide], the IC50 turned out to be 95.5 nM.

As for `Cn1nccc1CNc1nc(-c2ccncc2)cn2c(-c3ccc(C(=O)NC4CC4)c(F)c3)cnc12` [Example 1-64, N-cyclopropyl-2-fluoro-4-[8-{[(1-methyl-1H-pyrazol-5-yl)methyl]amino}-6-(pyridin-4-yl)imidazo[1,2-a]pyrazin-3-yl]benzamide], the IC50 worked out at 6.5 nM.

Turning to `Cn1nccc1CNc1nc(-c2ccoc2)cn2c(-c3ccc(C(=O)NC4CC4)c(F)c3)cnc12` [Example 1-65, N-cyclopropyl-2-fluoro-4-[6-(furan-3-yl)-8-{[(1-methyl-1H-pyrazol-5-yl)methyl]amino}imidazo [1,2-a]pyrazin-3-yl] benzamide], the IC50 was determined as 4.3 nM.

Regarding `Cn1nccc1CNc1nc(-c2ccn[nH]2)cn2c(-c3ccc(C(=O)NC4CC4)c(F)c3)cnc12` [Example 1-66, N-cyclopropyl-2-fluoro-4-[8-{[(1-methyl-1H-pyrazol-5-yl)methyl]amino}-6-(1H-pyrazol-5-yl)imidazo[1,2-a]pyrazin-3-yl]benzamide], the IC50 is 30.5 nM.

Regarding `Cn1nccc1CNc1nc(C2=CCOCC2)cn2c(-c3ccc(C(=O)NC4CC4)c(F)c3)cnc12` [Example 1-67, N-cyclopropyl-4-[6-(3,6-dihydro-2H-pyran-4-yl)-8-{[(1-methyl-1H-pyrazol-5-yl)methyl]amino}imidazo[1,2-a]pyrazin-3-yl]-2-fluoro-benzamide], the IC50 was found to be 15.7 nM.

With `Cc1cc(-c2cn3c(-c4ccc(C(=O)NC5CC5)c(C)c4)cnc3c(NCCC(F)(F)F)n2)ccn1` [Example 1-68, N-cyclopropyl-2-methyl-4-{6-(2-methylpyridin-4-yl)-8-[(3,3,3-trifluoro-propyl)amino]imidazo [1,2-a]pyrazin-3-yl} benzamide], the IC50 is 1.5 nM.

Consider `Cc1cc(-c2cnc3c(NCCC(F)(F)F)nc(-c4cnn(C)c4)cn23)ccc1C(=O)NC1CC1` [Example 1-69, N-cyclopropyl-2-methyl-4-{6-(1-methyl-1H-pyrazol-4-yl)-8-[(3,3,3-trifluoropropyl)amino]imidazo[1,2-a]pyrazin-3-yl}benzamide], for which the half-maximal inhibitory concentration (IC50) stood at 3.8 nM.

(Values after patent publication US20140135319A1, “6-SUBSTITUTED IMIDAZOPYRAZINES FOR USE AS MPS-1 AND TKK INHIBITORS IN THE TREATMENT OF HYPERPROLIFERATIVE DISORDERS” (BAYER INTELLECTUAL PROPERTY GMBH, priority 2010, published 2014).)
